# Measured values reported in US20170251707A1, “PROCESS FOR THE PRODUCTION OF LOW COLORIE SWEETENER COMPOSITIONS AND USES THEREOF” (priority 2016, published 2017).
# Like-named read-outs stand apart in the source and are kept apart here.
# What was measured:
# [1] = In vivo study: test beverage, postprandial glucose and insulin responses; set-up: species or system people; conditions: versus 25 g sucrose control, p=0.0001
# Method: FIGS. 3 and 4 represent the outcome of an in vivo study performed using 15 previously selected people. Selected subjects arrived at the labs between 8 am and 9:45 am, and the start time for each subject was kept as similar as possible. After being weighed, 2 fasting blood samples at 5 min intervals were collected; subjects started to consume a test beverage (sweetener mixed with water) which was consumed in its entirety within 5 min. A timer was started at the first sip of the beverage, and further capillary blood samples were obtained at t=15, 30, 45, 60, 90 and 120±2 min, for the determination of glucose and insulin concentrations. Blood samples were collected into 2 separate vials: one (2-3 drops blood) for glucose analysis and the other (8-10 drops of blood) for insulin. Before and during the test, a blood glucose test record was filled out with the subject's initials, ID number, date, body weight, test meal, time of starting to eat, time it took to eat, time and composition of last meal, and any unusual activities. At the beginning and end, participants were asked to fill out a symptom questionnaire. During the 2 hours of the test, participants remain seated quietly. After the last blood sample was obtained participants were offered a snack and allowed to leave. […]
# [2] = continuous intravenous, 1 g/kg body weight, human subjects; cited from earlier work
# [3] = cited from earlier work
# [4] = cited from earlier work; remark: listed apart in the source
# [5] = blood plasma testing; cited from earlier work
# [6] = alone or in combination with fructose, compared with glucose alone; cited from earlier work
# [7] = HFD-fed mice; cited from earlier work
# [8] = pre-exercise ingestion; cited from earlier work
# [9] = cited from earlier work; remark: listed apart in the source
# intestinal sucrase = conditions: porcine intestinal mucosa, in vitro; cited from earlier work
# [10] = cited from earlier work; remark: listed apart in the source
# [11] = acute (test meal) and sub chronic (twice a day for 9 week), after sucrose feeding; cited from earlier work
# [12] = healthy and type 2 diabetic subjects, sucrose with 4% added L-Arabinose; cited from earlier work
# [13] = rats, HCHF diet; cited from earlier work
# [14] = humans, after six months; cited from earlier work
# [15] = oral 15, 35 or 75 g in 250 ml, versus water alone
# [16] = sucrose in combination with L-Arabinose versus sucrose
structure (smiles),measurement,setting,value
OC[C@H]1O[C@H](O[C@]2(CCl)O[C@H](CCl)[C@@H](O)[C@@H]2O)[C@H](O)[C@@H](O)[C@H]1Cl [sucralose],postprandial insulin responses (FIG. 5),[1],significantly lower than sucrose
OCC(O)CO [glycerol],serum insulin concentration,[2],did not result in an increased
same,insulin response,[3]; [15],did not differ significantly from those after water alone
same,plasma glucose response,[3]; [15],did not differ significantly from those after water alone
"O=C[C@H](O)[C@@H](O)[C@H](O)[C@H](O)CO [D-glucose, reference compound]",incremental area under the glucose response curve (AUC),[3]; oral 15 or 75 g in 250 ml,significant dose-dependent increase
same,incremental area under the insulin response curve (AUC),[3]; oral 15 or 75 g in 250 ml,significant dose-dependent increase
same,reduction in blood glucose levels,[4]; after 180 minute,20%
same,increment / elevation of blood glucose levels,[4]; healthy human subjects,52%
OC[C@H]1O[C@H](O[C@H]2O[C@H](CO)[C@@H](O)[C@H](O)[C@H]2O)[C@H](O)[C@@H](O)[C@@H]1O [Trehalose],influence on blood glucose levels,[5],almost flat response
same,glycemic response,[6],lower
same,insulinemic response,[6],lower
same,adipocyte hypertrophy,[7],prevents
same,insulin resistance,[7],mitigates
same,insulin response prior to exercise,[8],lower
same,plasma glucose response prior to exercise,[8],lower
same,prevalence of rebound hypoglycemia,[8],reduced
"O=C[C@H](O)[C@@H](O)[C@@H](O)[C@H](O)CO [galactose, reference compound]",insulin response prior to exercise,[8],lower
same,plasma glucose response prior to exercise,[8],lower
same,prevalence of rebound hypoglycemia,[8],reduced
"OC[C@@H](O)[C@@H](O)CO [Erythritol, (2R,3S)-butane-1,2,3,4-tetraol]",excretion,"[9]; human metabolism, for the most part",excreted unchanged in the urine
same,absorption,[9]; human metabolism,absorbed into the bloodstream in the small intestine
same,increases in blood sugar levels,[9]; in vivo,does not induce increases
same,laxative effects,[9]; in vivo,does not normally cause laxative effects
same,tooth decay,[9]; in vivo,does not cause
same,gastric side effects,[9]; unlike other sugar alcohols,unlikely to cause
O=C[C@H](O)[C@@H](O)[C@@H](O)CO [L-Arabinose],effect on intestinal sucrase activity,intestinal sucrase,inhibitory effect
same,liver triacylglycerol concentrations,"[10]; rats fed with sucrose, additional feeding of L-Arabinose",prevented this increase
same,blood glucose response,[10]; [16],suppressed
same,insulin response,[10]; [16],suppressed
same,blood glucose,[11],suppressed
same,increases in plasma glucose,[12],reduced
same,increases in serum insulin,[12],reduced
same,"body weight, lee's index, visceral index",[13],lower
same,"dyslipidemia, insulin resistance, inflammation, and viscera function",[13],improve
same,diastolic blood pressure,[14],slightly decreased
same,high-density lipoprotein cholesterol,[14],slightly increased
same,"waist circumference, total cholesterol, fasting glucose, serum uric acid, low-density lipoprotein cholesterol",[14],decreased
